Measured values from US6969711B2, “Cyclic diamine compounds and medicine containing the same” (Kowa Company, Ltd., priority 1997, dated 2005).

SMILES	melting point
COc1cc(C)nc(OC)c1NC(=O)CN1CCN(CCSc2nc3ccccc3o2)CC1 [Example 45, 2-[4-[2-(benzoxazol-2-ylthio)ethyl]piperazin-1-yl]-N-[2,4-dimethoxy-6-methyl-3-pyridyl)acetamide]	113 to 115 °C
CCOCCOc1cc(C(C)C)c(NC(=O)CN2CCN(CCSc3nc4ccccc4o3)CC2)c(C(C)C)c1 [Example 78, 2-[4-[2-(benzoxazol-2-ylthio)ethyl]piperazin-1-yl]-N-[2,6-diisopropyl-4-(2-ethoxyethyl)oxyphenyl)acetamide]	92 to 95 °C
COC(=O)c1cccc2oc(SCCCN3CCN(CC(=O)Nc4c(C(C)C)cccc4C(C)C)CC3)nc12 [Example 11, 2-[4-[3-(4-methoxycarbonylbenzoxazol-2-ylthio)propyl]piperazin-1-yl]-N-(2,6-diisopropylphenyl)acetamide]	132 to 133 °C
CSc1cc(C)nc(SC)c1NC(=O)CN1CCN(CCSc2nc3ccccc3s2)CC1 [Example 31, 2-[4-[2-(benzothiazol-2-ylthio)ethyl]piperazin-1-yl]-N-(2,4-bis(methylthio)-6-methyl-3-pyridyl)acetamide]	136 to 139 °C
CC(C)c1cc([N+](=O)[O-])c(O)c(C(C)C)c1NC(=O)CN1CCN(CCSc2nc3ccccc3o2)CC1 [Example 66, 2-[4-[2-(benzoxazol-2-ylthio)ethyl]piperazin-1-yl]-N-(2,6-diisopropyl-3-hydroxy-4-nitrophenyl)acetamide]	139 to 141 °C
COc1cc(C(C)C)c(NC(=O)CN2CCN(CCSc3nc4ccccc4o3)CC2)c(C(C)C)c1 [Example 75, 2-[4-[2-(benzoxazol-2-ylthio)ethyl]piperazin-1-yl]-N-(2,6-diisopropyl-4-methoxyphenyl)acetamide]	115 to 117 °C
CC(C)c1cccc(C(C)C)c1NC(=O)CN1CCN(CCSc2nc3ccccc3s2)CC1 [Example 2, 2-[4-[2-(benzothiazol-2-ylthio)ethyl]-piperazin-1-yl]-N-(2,6-diisopropylphenyl)acetamide]	170 to 171 °C
Cc1cc(SC(C)C)c(NC(=O)CN2CCN(CCSc3nc4ccccc4[nH]3)CC2)c(SC(C)C)n1 [Example 37, 2-[4-[2-(benzimidazol-2-ylthio)ethyl]piperazin-1-yl]-N-(2,4-bis(isopropylthio)-6-methyl-3-pyridyl)acetamide]	186 to 188 °C
CC(C)c1cccc(C(C)C)c1NC(=O)CN1CCCN(CCCSc2nc3ncccc3o2)CC1 [Example 15, 2-[4-[3-(oxazolo[4,5-b]pyridin-2-ylthio)propyl]homopiperazin-1-yl]-N-(2,6-diisopropylphenyl)acetamide]	73 to 75 °C
CCOC(=O)COc1cc(C(C)C)c(NC(=O)CN2CCN(CCSc3nc4ccccc4o3)CC2)c(C(C)C)c1 [Example 77, 2-[4-[2-(benzoxazol-2-ylthio)ethyl]piperazin-1-yl]-N-[2,6-diisopropyl-4-ethoxycarbonylmethyloxyphenyl)acetamide]	118 to 120 °C
CC(C)c1cc(C(C)C)c(NC(=O)CN2CCN(CCSc3nc4ccccc4[nH]3)CC2)c(C(C)C)c1 [Example 49, 2-[4-[2-(benzimidazol-2-ylthio)ethyl]piperazin-1-yl]-N-(2,4,6-triisopropylphenyl)acetamide]	217 to 218 °C
CC(C)c1cccc(C(C)C)c1NC(=O)CCN1CCN(CCCSc2nc3ccccc3o2)CC1 [Example 23, 3-[4-[3-(benzoxazol-2-ylthio)propyl]piperazin-1-yl]-N-(2,6-diisopropylphenyl)propanamide]	93 to 95 °C
CCCCCCCN(CCN1CCN(CCSc2nc3ccccc3o2)CC1)C(=O)Nc1c(SCC)cc(C)nc1SCC.Cl.Cl	124 to 127 °C
Cc1cc(SC(C)C)c(NC(=O)CN2CCN(CCSc3nc4ncccc4o3)CC2)c(SC(C)C)n1.Cl.Cl	170 to 172 °C
COC(=O)c1cccc2nc(SCCN3CCN(CCNC(=O)Nc4c(C(C)C)cccc4C(C)C)CC3)oc12 [Example 82, N-[2-[4-[2-(7-methoxycarbonylbenzoxazol-2-ylthio)ethyl]piperazin-1-yl]ethyl]-N′-(2,6-diisopropylphenyl)urea]	186 to 188 °C
CCCCCCCN(CCN1CCN(CCCSc2nc3ccccc3o2)CC1)C(=O)Nc1c(SC)cc(C)nc1SC.Cl.Cl	208 to 210 °C
CSc1ncnc(SC)c1NC(=O)CN1CCN(CCSc2nc3ccccc3o2)CC1 [Example 46, 2-[4-[2-(benzoxazol-2-ylthio)ethyl]piperazin-1-yl]-N-[4,6-bis(methylthio)-5-pyrimidyl)acetamide]	171 to 172 °C
CCCCCCCN(CCN1CCN(CCSc2nc3ccccc3s2)CC1)C(=O)Nc1c(SCC)cc(C)nc1SCC.Cl.Cl	136 to 138 °C
CC(C)c1cccc(C(C)C)c1NC(=O)CN1CCN(CCSc2nc3cccc(C(F)(F)F)c3o2)CC1 [Example 85, 2-[4-[2-(7-trifluoromethylbenzoxazol-2-ylthio)ethyl]piperazin-1-yl]-N-(2,6-diisopropylphenyl)acetamide]	135 to 137 °C (dec.)
CC(C)c1cccc(C(C)C)c1NC(=O)CN1CCN(CCCSc2nc3ncccc3o2)CC1 [Example 12, 2-[4-[3-(oxazolo[4,5-b]pyridine-2-ylthio)propyl]piperazin-1-yl]-N-(2,6-diisopropylphenyl)acetamide]	125 to 127 °C
CC(C)c1ccc(N(C)C)c(C(C)C)c1NC(=O)CN1CCN(CCSc2nc3ccccc3o2)CC1 [Example 59, 2-[4-[2-(benzoxazol-2-ylthio)ethyl]piperazin-1-yl]-N-(2,6-diisopropyl-3-dimethylaminophenyl)acetamide]	159 to 161 °C
CC(C)c1cccc(C(C)C)c1NC(=O)NCCN1CCN(CCSc2nc3ccccc3o2)CC1 [Example 79, N-[2-[4-[2-(benzoxazol-2-ylthio)-ethyl]piperazin-1-yl]ethyl]-N′-(2,6-diisopropylphenyl)urea]	152 to 153 °C
CSc1ccc(C(C)C)c(NC(=O)CN2CCN(CCCSc3nc4ccccc4o3)CC2)c1C(C)C [Example 68, 2-[4-[3-(benzoxazol-2-ylthio)propyl]piperazin-1-yl]-N-[2,6-diisopropyl-3-(methylthio)phenyl]acetamide]	126 to 127 °C
CCCCCCCN(CCN1CCN(CCSc2nc3cccc(C(=O)OC)c3o2)CC1)C(=O)Nc1c(C(C)C)cccc1C(C)C [Example 17, N′-(2,6-diisopropylphenyl)-N-heptyl-N-[2-[4-[2-(7-methoxycarbonylbenzoxazol-2-ylthio)-ethyl]piperazin-1-yl]ethyl]urea]	125 to 126 °C
CCSc1cc(C)nc(SCC)c1NC(=O)CN1CCN(CCSc2nc3ncccc3o2)CC1.O=C(O)/C=C\C(=O)O.O=C(O)/C=C\C(=O)O	148 to 149 °C

More lines, now with the values ahead:

melting point	SMILES
126 to 129 °C (dec.)	COc1cc2oc(SCCN3CCN(CC(=O)Nc4c(C(C)C)cccc4C(C)C)CC3)nc2c(OC)c1OC [Example 98, 2-[4-[2-(4,5,6-trimethoxybenzoxazol-2-ylthio)ethyl]piperazin-1-yl]-N-(2,6-diisopropylphenyl)acetamide]
77 to 79 °C	CC(C)c1cccc(C(C)C)c1NC(=O)CN1CCCN(CCCSc2nc3cccc(C(F)(F)F)c3o2)CC1 [Example 91, 2-[4-[3-(7-trifluoromethylbenzoxazol-2-ylthio)propyl]homopiperazin-1-yl]-N-(2,6-diisopropylphenyl)acetamide]
241 to 242 °C	CC(C)c1cc(O)cc(C(C)C)c1NC(=O)CN1CCN(CCSc2nc3ccccc3[nH]2)CC1 [Example 156, 2-[4-[2-(benzimidazol-2-ylthio)ethyl]piperazin-1-yl]-N-(2,6-diisopropyl-4-hydroxyphenyl)acetamide]
146 to 148 °C	CC(C)c1cc(CO)cc(C(C)C)c1NC(=O)CN1CCN(CCSc2nc3cccc(C(F)(F)F)c3o2)CC1 [Example 140, 2-[4-[2-(7-trifluoromethylbenzoxazol-2-ylthio)ethyl]piperazin-1-yl]-N-[2,6-diisopropyl-4-hydroxymethylphenyl]acetamide]
153 to 155 °C	CC(C)c1cccc(C(C)C)c1NC(=O)CN1CCN(CCSc2nc3cccc([N+](=O)[O-])c3o2)CC1 [Example 104, 2-[4-[2-(7-nitrobenzoxazol-2-ylthio)ethyl]-piperazin-1-yl]-N-(2,6-diisopropylphenyl)acetamide]
205 to 206 °C	CC(C)c1cccc(C(C)C)c1NC(=O)CN1CCN(CCOc2nc3ccccc3[nH]2)CC1 [Example 154, 2-[4-[2-(benzimidazol-2-yloxy)ethyl]piperazin-1-yl]-N-(2,6-diisopropylphenyl)acetamide]
115 to 117 °C	CCOCCOc1cc(C(C)C)c(NC(=O)CN2CCN(CCCSc3nc4ccccc4o3)CC2)c(C(C)C)c1 [Example 120, 2-[4-[3-(benzoxazol-2-ylthio)propyl]piperazin-1-yl]-N-[2,6-diisopropyl-4-(2-ethoxyethyloxy)phenyl]acetamide]
162 to 163 °C	Cc1c(Cl)cc(C(C)C)c2oc(SCCN3CCN(CC(=O)Nc4c(C(C)C)cccc4C(C)C)CC3)nc12 [Example 97, 2-[4-[2-(5-chloro-7-isopropyl-4-methylbenzoxazol-2-ylthio)ethyl]piperazin-1-yl]-N-(2,6-diisopropylphenyl)acetamide]
119 to 120 °C	CC(C)c1cccc(C(C)C)c1NC(=O)CN1CCN(CCSc2nc3cccc([S+](C)[O-])c3o2)CC1 (stereo not drawn) [Example 121, 2-[4-[2-(7-methanesulfinylbenzoxazol-2-ylthio)ethyl]piperazin-1-yl]-N-(2,6-diisopropylphenyl)acetamide]
100 to 102 °C	CCCCCCCN(CCN1CCN(CCSc2nc3ncccc3o2)CC1)C(=O)Nc1c(C(C)C)cc(O)cc1C(C)C [Example 139, N′-(2,6-diisopropyl-4-hydroxyphenyl)-N-heptyl-N-[2-[4-[2-(oxazolo[4,5-b]pyridin-2-ylthio)ethyl]piperazin-1-yl]ethyl]urea]
126 to 127 °C	COc1ccc(C(C)C)c(NC(=O)CN2CCN(CCCSc3nc4c(C)c(Cl)cc(C(C)C)c4o3)CC2)c1C(C)C [Example 110, 2-[4-[3-(5-chloro-7-isopropyl-4-methylbenzoxazol-2-ylthio)propyl]piperazin-1-yl]-N-(2,6-diisopropyl-3-methoxyphenyl)acetamide]
